Laboratory results from patent publication US11370847B2, “Single domain antibodies directed against intracellular antigens” (Singh Biotechnology, LLC, priority 2014, dated 2022).
“And” between values parts separate entries of the source, which are not always exact repeats. Identical values can stand only once. Like-named read-outs stand apart in the source and are kept apart here.

Columns and labels:
SJSA-1 cells = assay: MTT proliferation assay, SJSA-1; format: cell-based, human; details: SJSA-1; 72 hours; 50 μg/ml
MDA-MB-231 cells = assay: MTT proliferation assay, MDA-MB-231; format: cell-based, human; details: for Mean: mean absorbance;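 as to all read-outs here: proliferation of cultured human cancer cells read by MTT, with treated groups compared against a vehicle control group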
PANC-1 cells = assay: MTT proliferation assay, PANC-1; details: for Abs: 72 hours
STAT3 = STAT3 reporter GloResponse SIE-luc2P/HEK293 assay, IL-6 induction; format: cell-based;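 also: SIE-luc2P/HEK293 reporter cells stimulated with IL-6 at 40 ng/mL (EC80) after pretreatment, luciferase luminescence (RLU) read the following day, triplicate wells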
[1] = Homo sapiens, PANC-1, 72 h, read-out: % Inhibition, Growth Inhibition of PANC-1 Cells
[2] = 24 Hour Treatment Prior to IL6 Induction, higher conc.: VHH13 55.8 μg/mL, VHH14 84.3 μg/mL, BB1608 4.16 μM, VHH69 50.5 μg/mL
[3] = 24 Hour Treatment Prior to IL6 Induction, lower conc.: VHH13, VHH14, VHH69 10 μg/mL, BB1608 2 μM
[4] = 48 Hour Treatment Prior to IL6 Induction, higher conc.: VHH13 55.8 μg/mL, VHH14 84.3 μg/mL, BB1608 4.16 μM, VHH69 50.5 μg/mL
[5] = 48 Hour Treatment Prior to IL6 Induction, lower conc.: VHH13, VHH14, VHH69 10 μg/mL, BB1608 2 μM

Curirx P04: SBT-100 produced by Curirx, P04 buffer sample
growth inhibition (SJSA-1 cells): significant growth inhibition

MPT B1 (pH 5.0): SBT-100 produced by Microprotein Technologies
MTT absorbance, single replicates (MDA-MB-231 cells; MDA-MB-231, 50 μg/ml): 0.924 and 0.741 and 0.834 and 0.749 and 0.771 and 0.77 | Mean (MDA-MB-231 cells; MDA-MB-231, 50 μg/ml): 0.798 | MTT absorbance, single replicates (MDA-MB-231 cells; MDA-MB-231, 100 μg/ml): 0.65 and 0.656 and 0.624 | Mean (MDA-MB-231 cells; MDA-MB-231, 100 μg/ml): 0.643

Nc1ccn([C@@H]2O[C@H](CO)[C@@H](O)C2(F)F)c(=O)n1 [Gemcitabine]
Abs (PANC-1 cells; Gemcitabine Hydrochloride (Biovision #1759) 0.020 μM alone): 1.631 | Abs (PANC-1 cells; Gemcitabine Hydrochloride (Biovision #1759) 0.039 μM alone): 1.550 | Abs (PANC-1 cells; Gemcitabine Hydrochloride (Biovision #1759) 0.313 μM alone): 1.084 | Abs (PANC-1 cells; Gemcitabine Hydrochloride (Biovision #1759) 0.625 μM alone): 1.001 | Abs (PANC-1 cells; Gemcitabine Hydrochloride (Biovision #1759) 5 μM alone): 0.654 | Abs (PANC-1 cells; Gemcitabine Hydrochloride (Biovision #1759) 10 μM alone): 0.576 | inhibition at 0.02 µM (PANC-1 cells; Homo sapiens, PANC-1): 0% | inhibition at 0.039 µM (PANC-1 cells; Homo sapiens, PANC-1): 0% | inhibition at 0.313 µM (PANC-1 cells; Homo sapiens, PANC-1): 5% | inhibition at 0.625 µM (PANC-1 cells; Homo sapiens, PANC-1): 0% | inhibition at 5 µM (PANC-1 cells; Homo sapiens, PANC-1): 40% | inhibition at 10 µM (PANC-1 cells; Homo sapiens, PANC-1): 48% | inhibition at 5 µM (PANC-1 cells; [1]): 38% | inhibition at 10 µM (PANC-1 cells; [1]): 35% | inhibition at 10 µM (PANC-1 cells; Homo sapiens, PANC-1, 72 h, read-out: growth inhibition of PANC-1 cells): 48%

CC(=O)c1cc2c(o1)C(=O)c1ccccc1C2=O [BBI608, napabucasin, reference compound]
Average RLU (STAT3; [2]): 33 RLU | Luminescence (replicate wells) (STAT3; [2]): 41 RLU and 28 RLU and 31 RLU | Fold-Induction RLU/RLU of −IL6 (STAT3; [3]): 0 | Luminescence (replicate wells) (STAT3; [3]): 41 RLU and 33 RLU and 39 RLU | effect on IL-6 induction of the STAT3 reporter (STAT3; 24 and 48 hours treatment, VHH13 and VHH69 at highest concentration, VHH14 at both concentrations): Inhibition of IL-6 | Fold-Induction RLU/RLU of −IL6 (STAT3; [4]): 0 | Luminescence (replicate wells) (STAT3; [4]): 32 RLU and 25 RLU and 31 RLU | Average RLU (STAT3; [5]): 33 RLU | Luminescence (replicate wells) (STAT3; [5]): 31 RLU and 26 RLU and 42 RLU
